Data reported in PubChem BioAssay (NCI).
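Where inhibition never reached the appropriate level, the endpoint shown equals the highest concentration tested. Otherwise, values were interpolated linearly from a five-concentration, 48-hour dose response in 96-well plates. TGI: total growth inhibition.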

Assays:
Test in all cases: NCI anticancer screen, dose series, 48 h
786-0 renal = tested on: 786-0 renal
EKVX NSCLC = tested on: EKVX NSCLC
HS 578T breast = tested on: HS 578T breast
M14 melanoma = tested on: M14 melanoma
NCI-H460 lung = tested on: NCI-H460 lung
OVCAR-5 ovarian = tested on: OVCAR-5 ovarian
SF-268 CNS = tested on: SF-268 CNS
SF-539 CNS = tested on: SF-539 CNS
SK-OV-3 ovarian = tested on: SK-OV-3 ovarian
T-47D breast = tested on: T-47D breast
UO-31 renal = tested on: UO-31 renal

Measured: TGI

COC(=O)C(=O)C(C(=O)C(=O)Nc1ccc(C)c(C)c1)c1nc2ccc([N+](=O)[O-])cc2[nH]c1=O (stereo unspecified)
> 100 µM: 786-0 renal | EKVX NSCLC | HS 578T breast | M14 melanoma | NCI-H460 lung | OVCAR-5 ovarian | SF-268 CNS | SF-539 CNS | SK-OV-3 ovarian | T-47D breast | UO-31 renal
